Experimental data published in the supplement of paper PMC10307832.

Assays:
Experiment in all cases: relative viability (nuclei count vs DMSO), 5 days (fraction); higher = more cells survive
Vemurafenib + Foretinib = compound: CCCS(=O)(=O)Nc1ccc(F)c(C(=O)c2c[nH]c3ncc(-c4ccc(Cl)cc4)cc23)c1F [Vemurafenib] + COc1cc2c(Oc3ccc(NC(=O)C4(C(=O)Nc5ccc(F)cc5)CC4)cc3F)ccnc2cc1OCCCN1CCOCC1 [Foretinib] (partner 0.25 µM)
Method in brief: (§1)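 Lung cancer cell lines were seeded in 1536-well plates and dosed by pin tool the next day, with either a single drug or a fixed anchor-drug dose combined with five library-drug doses (not always all listed) spaced in √10 steps. Five days later, one step fixed the cells and stained their nuclei (final 0.05% Triton X-100, 1% formaldehyde, 1 ug/ml Hoechst), and nuclei were counted on 4× images. Relative viability is the nuclei count in treated wells divided by the count in vehicle wells, and each value is the median of duplicate plates.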

Vemurafenib + Pictilisib = compound: CCCS(=O)(=O)Nc1ccc(F)c(C(=O)c2c[nH]c3ncc(-c4ccc(Cl)cc4)cc23)c1F [Vemurafenib] + CS(=O)(=O)N1CCN(Cc2cc3nc(-c4cccc5[nH]ncc45)nc(N4CCOCC4)c3s2)CC1 [Pictilisib] (partner 1 µM)
Method in brief: as §1

OSI-027 + Crizotinib = compound: COc1cccc2cc(-c3nc([C@H]4CC[C@H](C(=O)O)CC4)n4ncnc(N)c34)[nH]c12 [OSI-027] + C[C@@H](Oc1cc(-c2cnn(C3CCNCC3)c2)cnc1N)c1c(Cl)ccc(F)c1Cl [Crizotinib] (partner 1 µM)
Method in brief: as §1

Vemurafenib + AZD7762 = compound: CCCS(=O)(=O)Nc1ccc(F)c(C(=O)c2c[nH]c3ncc(-c4ccc(Cl)cc4)cc23)c1F [Vemurafenib] + NC(=O)Nc1cc(-c2cccc(F)c2)sc1C(=O)N[C@H]1CCCNC1 [AZD7762] (partner 0.2 µM)
Method in brief: as §1

Cell Line	relative viability (Vemurafenib + Foretinib; first compound 0.03162 µM)	relative viability (Vemurafenib + Foretinib; first compound 0.1 µM)	relative viability (Vemurafenib + Foretinib; first compound 0.3162 µM)	relative viability (Vemurafenib + Foretinib; first compound 1 µM)	relative viability (Vemurafenib + Pictilisib; first compound 0.03162 µM)	relative viability (Vemurafenib + Pictilisib; first compound 0.1 µM)	relative viability (Vemurafenib + Pictilisib; first compound 0.3162 µM)	relative viability (Vemurafenib + Pictilisib; first compound 1 µM)	relative viability (OSI-027 + Crizotinib; first compound 0.01 µM)	relative viability (OSI-027 + Crizotinib; first compound 0.03162 µM)	relative viability (OSI-027 + Crizotinib; first compound 0.1 µM)	relative viability (OSI-027 + Crizotinib; first compound 0.3162 µM)	relative viability (OSI-027 + Crizotinib; first compound 1 µM)	relative viability (Vemurafenib + AZD7762; first compound 0.03162 µM)	relative viability (Vemurafenib + AZD7762; first compound 0.1 µM)	relative viability (Vemurafenib + AZD7762; first compound 1 µM)	relative viability (Vemurafenib + AZD7762; first compound 0.3162 µM)
LU99A	0.87	0.867	0.819	0.723	0.282	0.311	0.297	0.286	0.522	0.522	0.46	0.313	0.208	0.369	0.353	0.385	–
LXF-289	0.968	0.931	1.07	1.07	0.711	0.724	0.698	0.758	0.859	0.827	0.892	0.909	0.759	1.04	1.12	1.25	1.04
NCI-H23	0.981	0.685	0.953	0.719	0.531	0.493	0.476	0.452	0.482	0.416	0.535	0.525	0.293	0.203	0.178	0.21	0.154
NCI-H322M	0.923	–	–	1.02	0.552	–	0.719	0.572	0.86	0.929	0.951	0.947	0.775	0.559	–	0.51	0.543
NCI-H358	0.638	0.494	0.886	0.858	0.291	–	0.417	0.299	0.566	0.509	0.552	0.704	0.348	0.551	–	0.632	0.621
NCI-H441	0.962	0.696	0.919	0.912	0.44	0.402	0.544	0.35	0.679	0.613	0.633	0.604	0.338	1.09	1.1	1.03	1.16
NCI-H460	0.96	0.982	0.909	1.05	0.332	0.438	0.271	0.296	0.888	0.714	1.06	0.759	0.184	0.579	0.604	0.619	–
NCI-H596	0.921	0.643	0.695	0.922	0.352	0.356	0.429	0.388	0.946	1.07	1.05	0.838	0.734	1.11	1.05	1.02	0.801
NCI-H647	1.12	1.11	1.34	1.02	0.343	0.39	–	0.434	1.12	1.2	1.07	0.701	0.456	0.433	0.541	0.432	0.26
NCI-H650	1.01	0.983	–	0.879	0.818	0.834	0.534	0.771	0.733	0.583	0.582	0.469	0.336	0.854	1.03	0.906	0.419
NCI-H727	0.883	0.768	1.31	0.969	0.353	0.32	0.568	0.315	0.626	0.862	0.798	0.655	0.517	0.555	0.468	0.59	0.744
NCI-H838	0.964	1.05	–	1.07	0.401	0.445	–	0.626	0.803	0.696	0.599	0.447	0.367	0.899	0.955	0.918	0.709
NCI-H1355	0.922	0.924	1	1.03	0.419	0.426	0.377	0.395	0.969	0.937	0.998	0.847	0.276	0.672	0.663	0.698	0.603
NCI-H1437	1.18	1.22	1.3	1.27	0.445	0.376	0.512	0.333	0.987	0.966	0.995	0.944	0.441	1.14	1.04	1.09	0.943
NCI-H1651	0.647	0.742	0.88	0.789	0.523	0.6	0.665	0.527	0.878	0.801	0.841	0.816	0.635	0.407	0.407	0.467	0.4
NCI-H1666	0.99	0.87	0.993	0.925	0.387	–	0.482	0.331	1	1.09	0.754	0.76	0.524	0.782	0.73	0.829	0.729
